Source: patent US20210246140A1, “MODULATORS OF METABOTROPIC GLUTAMATE RECEPTOR 2” (The General Hospital Corporation, priority 2020, published 2021)

Legend:
Determination of Log P = assay type: physicochemical; conditions: experimental lipophilicity
Method: Determination of Log P The Log P was determined using a reversed-phase HPLC method. First, seven reference compounds were examined to obtain the linear regression of the log P against the log of capacity factors by the expression: log Pow=a+b*log k. The Log P of these reference compounds was already been determined. The capacity factor k was calculated by the expression: k=(tR−t0)/t0. The retention time tR of test compound was determined on the HPLC (Agilent 1260 infinity II LC System, XTerra™ MS Cis 5μ 2.1×250 mm, methanol/water=75/25, 0.25 mL/min). The dead-time to was measured by using thiourea. The linear regression equation of the Log P against the log of capacity factors was generated in Excel: log Pow=3.049+2.429*log k, where R^2 was 0.9964. The retention time of compound 1, 2, and 7 was also determined on the HPLC under the same condition and each test was repeated three times (FIG. 5).
The experimental lipophilicity was measured by using liquid-liquid partition between n-octanol and water (“shake-flask method”) [see ref. 54]. […] The plasma protein binding comprises compounds' binding to albumin, α1-acid glycoprotein and lipoproteins once delivered to the bloodstream. This property was evaluated for compounds 1 and 2 by equilibrium dialysis [see ref. 56], where two chambers were separated by a dialysis membrane (MWCO 8 kD). The plasma protein bindings of 1 and 2 are 87.2% and 88.7%, respectively (see FIGS. 20 and 6). Therefore, the high plasma free fraction of compounds 1 and 2 (>10%) would allow enough free drug concentration in blood stream to reach the brain targets.

[1] = Plasma stability in rat serum; assay type: in vitro ADME; conditions: 37° C., diltiazem as positive control
Method: Compound stability in rat serum was examined using a published method. [See ref. 57] Rat serum (100 μL, Abeam, Inc, No. ab7488) and test compound or control compound (2.5 μL, 1 mM in DMSO) was added to the individual tube. The tube was vortexed and incubated at 37° C. During the incubation, aliquots of 50 μL samples were quenched with ice-cold acetonitrile at 0, 15, 30, 60, and 120 min time points, respectively. After mixing, the quenched samples were centrifuged, and the supernatant was withdrawn for analysis by HPLC (Agilent 1260 infinity II LC System, XTerra™ MS C18, 5μ, 2.1×250 mm, 20 mM ammonium formate (A)/acetonitrile (B), 0.25 mL/min, gradient of 5% to 100% B). The samples were assayed at least three times. Compound 1-OH was used as internal standard while diltiazem was used as a positive control. The percentage remaining was calculated by (peak area at the specific time point)/(peak area at 0 min)×100% (FIG. 7).
(§1) The in vitro plasma and liver microsomal stability of 1 and 2 were studied by incubating the test compounds in rat serum and rat liver microsomes as well as NADPH cofactor, respectively, using previously published methods [see refs. 57, 58]. […] The solution stability of 1 was evaluated with buffer solutions at pH 5.0, 7.4 and 9.4, respectively (FIGS. 10 and 20) [see refs. 61].

[2] = Solution stability in aqueous buffers at different pH; assay type: physicochemical; conditions: buffer solutions at pH 5.0, 7.4 and 9.4, 37° C., 2 h
Method: The solution stability of 3 was examined in the aqueous buffers at different pH values. 50 μL of compound in DMSO (0.25 mM) was added to the sodium acetate-KCl—HCl buffer (950 μL, 20 mM, pH 5.0), phosphate buffer (950 μL, 20 mM, pH 7.4), and boric acid-KCl—NaOH buffer (950 μL, 20 mM, pH 9.4), respectively. The mixtures were incubated for 2 h at 37° C. and analyzed by HPLC (Phenomenex Luna® column, 5 μm C18, 100 Å, 250×4.6 mm, eluents: CH3CN/H2O in 0.1% formic acid).
as §1, with “58]. Diltiazem and ML128 (a mGluR4 PAM) [see refs. 59, 60] were used as co-assay QC controls for plasma and microsomal stability assays, respectively, to ensure that the assays were operating properly, and that the activity of the plasma and microsomes were consistent with established criteria.” for “58].”

mGluR2 = target: T1, mGluR2 (Homo sapiens, UniProt Q14416); conditions: calcium flux, Gα15 or Gα16 forced coupling; read-out: previously reported mGluR2 EC50; cited from earlier work
T1 construct: expressed in transfected cells
T1 sequence (Q14416 19-872): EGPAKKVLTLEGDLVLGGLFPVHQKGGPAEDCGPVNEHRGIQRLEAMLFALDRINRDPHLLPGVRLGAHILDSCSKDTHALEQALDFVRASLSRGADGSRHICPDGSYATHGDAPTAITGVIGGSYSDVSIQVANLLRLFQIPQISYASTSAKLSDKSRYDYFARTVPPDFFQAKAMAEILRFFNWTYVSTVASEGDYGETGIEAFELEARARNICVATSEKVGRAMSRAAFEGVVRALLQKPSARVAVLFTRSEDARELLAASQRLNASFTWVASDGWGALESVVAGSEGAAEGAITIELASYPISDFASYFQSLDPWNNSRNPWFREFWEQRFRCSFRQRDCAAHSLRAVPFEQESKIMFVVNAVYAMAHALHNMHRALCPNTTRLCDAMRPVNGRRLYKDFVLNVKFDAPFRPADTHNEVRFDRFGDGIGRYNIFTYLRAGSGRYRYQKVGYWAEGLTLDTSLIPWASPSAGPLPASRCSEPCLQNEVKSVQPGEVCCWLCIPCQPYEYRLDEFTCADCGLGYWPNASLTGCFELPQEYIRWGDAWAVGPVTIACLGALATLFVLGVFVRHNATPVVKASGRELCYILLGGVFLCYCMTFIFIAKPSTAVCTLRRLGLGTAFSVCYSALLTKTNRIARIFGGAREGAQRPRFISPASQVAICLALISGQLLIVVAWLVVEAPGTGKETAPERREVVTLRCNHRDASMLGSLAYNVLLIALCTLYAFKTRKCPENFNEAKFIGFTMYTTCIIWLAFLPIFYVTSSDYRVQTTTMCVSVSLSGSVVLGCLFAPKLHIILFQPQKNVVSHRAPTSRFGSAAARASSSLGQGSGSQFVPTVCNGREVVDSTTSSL

## COc1cc(C(F)(F)F)ccc1C1CCN(Cc2nc3ncccc3n2C)CC1 [Compound 1]
Determination of Log P
  Log P: 3.65
[1]
  stability in rat plasma: much more stable than diltiazem
[2]
  solution stability: relatively stable
mGluR2
  EC50: 13 nM
